Experimental data from patent US20240262826A1, “WILD TYPE KIT INHIBITORS” (Blueprint Medicines Corporation, priority 2022, published 2024).

What was measured:
wild type c-kit = wild type c-kit (Homo sapiens (Human), UniProt P10721); assay: PathScan phospho c-kit (Tyr719) sandwich ELISA in SCF-stimulated M-07e cells (pKIT assay); assay type: cell-based; conditions: ELISA assay (values not marked *)
Method in brief: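 Tyr719-phosphorylated c-kit was measured by colorimetric (TMB) sandwich ELISA in lysates of M-07e cells. Cells were starved 4 h without serum or GM-CSF, dosed 60 min at 37 °C with compound (8 points, duplicate, 0.25% DMSO), and stimulated 10 min with human SCF (500 ng/mL as added). IC50 values came from 4-parameter logistic regression.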

[1] = target: human P-glycoprotein (P-gp, MDR1) (Homo sapiens (Human), UniProt P08183); assay: MDCK-MDR1 cell monolayer drug transport assay (P-gp efflux ratio); assay type: in vitro ADME; conditions: pH 7.4, MDCK-MDR1 cells; for efflux ratio at 2 h, 1 µM: 1 uM concentration of compound, read-out: Pgp Efflux Ratio, 1 uM
Chain of human P-glycoprotein (P-gp, MDR1) (P08183 whole entry): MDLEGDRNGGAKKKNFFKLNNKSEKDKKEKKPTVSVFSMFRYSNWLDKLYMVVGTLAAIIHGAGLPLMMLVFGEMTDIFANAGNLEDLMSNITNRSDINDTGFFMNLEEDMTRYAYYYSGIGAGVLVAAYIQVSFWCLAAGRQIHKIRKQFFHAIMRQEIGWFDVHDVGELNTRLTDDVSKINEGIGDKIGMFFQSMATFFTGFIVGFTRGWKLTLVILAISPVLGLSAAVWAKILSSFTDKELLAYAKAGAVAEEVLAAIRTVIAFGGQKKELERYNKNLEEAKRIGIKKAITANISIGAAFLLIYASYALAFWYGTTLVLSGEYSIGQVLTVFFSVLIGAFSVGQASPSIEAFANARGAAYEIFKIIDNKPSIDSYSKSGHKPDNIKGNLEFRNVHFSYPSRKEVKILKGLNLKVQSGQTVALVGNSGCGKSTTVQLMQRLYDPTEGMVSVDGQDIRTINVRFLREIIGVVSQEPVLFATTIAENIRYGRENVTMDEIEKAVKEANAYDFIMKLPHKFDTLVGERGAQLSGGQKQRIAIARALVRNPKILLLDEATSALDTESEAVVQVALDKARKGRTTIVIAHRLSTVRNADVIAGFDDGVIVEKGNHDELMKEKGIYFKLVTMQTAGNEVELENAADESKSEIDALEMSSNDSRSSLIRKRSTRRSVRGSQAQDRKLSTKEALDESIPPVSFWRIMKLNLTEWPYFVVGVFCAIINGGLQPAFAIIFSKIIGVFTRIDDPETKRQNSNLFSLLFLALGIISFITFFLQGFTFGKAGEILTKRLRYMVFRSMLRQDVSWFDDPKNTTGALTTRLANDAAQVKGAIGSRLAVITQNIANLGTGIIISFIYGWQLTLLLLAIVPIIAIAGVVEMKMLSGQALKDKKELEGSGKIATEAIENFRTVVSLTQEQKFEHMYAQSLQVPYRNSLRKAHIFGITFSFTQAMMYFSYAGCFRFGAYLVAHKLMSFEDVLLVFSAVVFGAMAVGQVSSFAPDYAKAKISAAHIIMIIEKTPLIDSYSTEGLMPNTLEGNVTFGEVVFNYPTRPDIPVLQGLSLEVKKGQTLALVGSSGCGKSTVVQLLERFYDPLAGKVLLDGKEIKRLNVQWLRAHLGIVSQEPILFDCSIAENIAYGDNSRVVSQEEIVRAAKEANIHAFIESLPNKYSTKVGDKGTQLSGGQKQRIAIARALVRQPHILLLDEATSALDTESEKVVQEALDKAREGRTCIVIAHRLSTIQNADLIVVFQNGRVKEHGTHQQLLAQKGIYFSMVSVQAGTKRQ
Method: The potential for compounds prepared according to the examples to be substrates of P-gp was evaluated using in vitro on Multidrug Resistance Mutation 1-Mardin-Darby Canine Kidney (MDCK-MDR1)) (Mardin-Darby Canine Kidney) cell monolayers overexpressing P-gp grown on permeable supports.
Preparation for cell seeding: MDCK-MDR1 cell culture medium consisting of Dulbecco's Modified Eagle's Medium (DMEM) with high glucose and L-glutamine supplemented with: 10% FBS, 0.1 mg/mL of streptomycin, 0.6 μg/mL of Kanamycin sulfate and 100 units of penicillin was prepared. 50 μL of culture medium was added to each well of the Transwell insert. The Transwell insert was removed from the reservoir and 25 mL of culture medium was added. After incubation at 37° C., 5% CO2 for 1 hour, the plates were ready for cell seeding. The cells were cultivated in T-75 flasks in a cell culture incubator set at 37° C., 5% CO2, 95% relative humidity until they reached 80-90% confluence before detaching and splitting. The cultivated cells were rinsed in T-75 flasks with 5 mL PBS and aspirated off, and then 1.5 mL trypsin/EDTA was added and incubated at 37° C. for approximately 5 to 10 minutes or until the cells detach and float. The trypsin/EDTA was inactived by adding excess serum containing medium. The cell suspension was transferred to a conical tube and the cells pelleted by centrifugation at 120×g for 10 minutes. The cells were resuspended in seeding medium at a density of 1.56×10^6 cells/mL. This cell concentration was used to seed 5.45×10^5 cells/cm^2.
Seeding and feeding of MDCK-MDR1 cells into transwell plates: 50 μL of the above cell suspension was added to each well of a previously prepared Transwell plate and the plate was incubated for 4-8 days, replacing the medium every other day beginning no sooner than 48 hours after initial plating. The medium must be replaced on the day before conducting the experiment, and the procedure for medium changes was carried out as follows. The plate was removed from the incubator and placed in a hood. The medium was aspirated from a reservoir and each Transwell was inserted. 100 μL of culture medium was added to each well of the Transwell inserts and 25 mL of culture medium to reservoir tray. The plate was returned to the incubator.
Assessment of cell monolayer integrity: When the 4-day cultured MDCK-MDR1 cells reached confluence and were differentiated, the medium was removed from the reservoir and Transwell inserts. 100 μL of prewarmed culture medium was added to each transwell insert and 25 mL was added to the reservoir tray. The electrical resistance across the monolayer was measured using a Millicell Epithelial Volt-Ohm measuring system. The electrical resistance for each well was measured and then the plate was returned to the incubator. TEER values were calculated using this formula: TEER measurement (ohms)×Area of membrane (cm2)=TEER value (ohm cm2). Any monolayer with a TEER value <42 ohms·cm2, indicating poor monolayer formation, was discarded.
Performing the drug transport assay: The MDCK-MDR1 plate was removed from the incubator and the monolayer was washed, exchanging the volume two times using pre-warmed HBSS (Hank's balanced salt solution) (10 mM HEPES, pH 7.4). The plate was then incubated at 37° C. for 30 minutes. A 1 μM compound working solution was prepared as follows: Added […] of stock solution (10 mM in DMSO) of test compound and control compounds (Metoprolol, Prazosin and Imatinib) in one 96 well plate, then added 98 μL of DMSO into the same well to obtain 0.2 mM stock solutions (note a stock solution was further diluted 1:10 for eventually making a 0.1 uM compound working solution). Transfered 3 μL of 0.2 mM solution into 597 μL of transport buffer in one 96 well plate to prepare the 1 μM compound working solution. The plate was shaken at 1000 rpm for 10 min.

Chain of wild type c-kit (P10721 26-976): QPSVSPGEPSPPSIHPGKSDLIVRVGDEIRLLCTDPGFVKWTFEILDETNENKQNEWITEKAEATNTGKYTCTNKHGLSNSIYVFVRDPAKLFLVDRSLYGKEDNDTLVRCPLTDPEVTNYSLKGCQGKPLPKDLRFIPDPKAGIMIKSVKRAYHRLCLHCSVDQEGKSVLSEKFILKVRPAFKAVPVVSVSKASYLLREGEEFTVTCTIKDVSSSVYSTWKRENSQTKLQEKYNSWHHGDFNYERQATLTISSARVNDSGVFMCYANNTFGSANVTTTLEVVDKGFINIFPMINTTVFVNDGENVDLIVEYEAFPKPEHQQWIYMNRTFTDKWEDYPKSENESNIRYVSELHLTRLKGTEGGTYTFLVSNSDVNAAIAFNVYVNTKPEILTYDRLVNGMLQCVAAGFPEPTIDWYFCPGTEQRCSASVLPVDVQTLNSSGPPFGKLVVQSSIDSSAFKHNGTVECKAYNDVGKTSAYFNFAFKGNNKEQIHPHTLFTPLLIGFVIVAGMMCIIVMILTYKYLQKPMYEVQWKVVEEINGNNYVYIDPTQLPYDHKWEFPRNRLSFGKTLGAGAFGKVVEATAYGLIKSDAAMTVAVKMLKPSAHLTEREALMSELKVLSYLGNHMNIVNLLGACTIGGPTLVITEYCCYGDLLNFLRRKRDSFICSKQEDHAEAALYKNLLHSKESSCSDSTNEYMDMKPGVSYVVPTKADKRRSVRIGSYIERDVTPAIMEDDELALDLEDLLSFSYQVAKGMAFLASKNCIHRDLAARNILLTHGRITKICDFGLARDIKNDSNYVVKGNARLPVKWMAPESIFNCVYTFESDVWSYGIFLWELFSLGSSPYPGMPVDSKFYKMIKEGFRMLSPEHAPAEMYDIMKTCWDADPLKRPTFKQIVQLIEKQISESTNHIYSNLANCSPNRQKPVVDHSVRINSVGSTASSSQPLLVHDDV

Cc1nn(CC2(O)CCOCC2)cc1-c1ccn2ncc(C(=O)Nc3cc(-n4nnc([C@H]5C[C@@H]5F)n4)ccc3Cl)c2c1 (single isomer, unassigned) [Example 272, N-(2-chloro-5-(5-((1R,2S)-2-fluorocyclopropyl)-2H-tetrazol-2-yl)phenyl)-5-(1-((4-hydroxytetrahydro-2H-pyran-4-yl)methyl)-3-methyl-1H-pyrazol-4-yl)pyrazolo[1,5-a]pyridine-3-carboxamide or N-(2-chloro-5-(5-((1S,2R)-2-fluorocyclopropyl)-2H-tetrazol-2-yl)phenyl)-5-(1-((4-hydroxytetrahydro-2H-pyran-4-yl)methyl)-3-methyl-1H-pyrazol-4-yl)pyrazolo[1,5-a]pyridine-3-carboxamide]
IC50 (wild type c-kit): 0.9 nM
efflux ratio at 2 h, 1 µM [1]: 7

COC(=O)N1CC(n2nnc(-c3ccc(C)c(NC(=O)c4cnn5ccc(NCCOC(C)(C)C)cc45)c3)n2)C1 [Example 93, methyl 3-(5-(3-(5-((2-(tert-butoxy)ethyl)amino)pyrazolo[1,5-a]pyridine-3-carboxamido)-4-methylphenyl)-2H-tetrazol-2-yl)azetidine-1-carboxylate]
IC50 (wild type c-kit): 29 nM
efflux ratio at 2 h, 1 µM [1]: 11.4

COCCNc1ccn2ncc(C(=O)Nc3cc(-n4nnc(C5CN(C(=O)OC)C5)n4)ccc3Cl)c2c1 [Example 113, methyl 3-(2-(4-chloro-3-(5-((2-methoxyethyl)amino)pyrazolo[1,5-a]pyridine-3-carboxamido)phenyl)-2H-tetrazol-5-yl)azetidine-1-carboxylate]
IC50 (wild type c-kit): 6.4 nM
efflux ratio at 2 h, 1 µM [1]: 3.4

Cc1cc(F)c(-c2nnn(C3CC3)n2)cc1NC(=O)c1cnn2ccc(-c3cnn(CC(C)(C)O)c3)cc12 [Example 207, N-(5-(2-cyclopropyl-2H-tetrazol-5-yl)-4-fluoro-2-methylphenyl)-5-(1-(2-hydroxy-2-methylpropyl)-1H-pyrazol-4-yl)pyrazolo[1,5-a]pyridine-3-carboxamide]
IC50 (wild type c-kit): 1.4 nM
efflux ratio at 2 h, 1 µM [1]: 16.2

Cc1ccc(-c2nnn([C@H]3C[C@@H](C(F)(F)F)C3)n2)cc1NC(=O)c1cnn2ccc(N3CCN(CCO)CC3)cc12 [Example 106, 5-(4-(2-hydroxyethyl)piperazin-1-yl)-N-(2-methyl-5-(2-((1s,3s)-3-(trifluoromethyl)cyclobutyl)-2H-tetrazol-5-yl)phenyl)pyrazolo[1,5-a]pyridine-3-carboxamide]
IC50 (wild type c-kit): 5.8 nM
efflux ratio at 2 h, 1 µM [1]: 37.4

COC(=O)N1CC(n2nnc(-c3ccc(C)c(NC(=O)c4cnn5ccc(NCC6CCO6)cc45)c3)n2)C1 (centres unmarked) [Example 95, methyl 3-(5-(4-methyl-3-(5-((oxetan-2-ylmethyl)amino)pyrazolo[1,5-a]pyridine-3-carboxamido)phenyl)-2H-tetrazol-2-yl)azetidine-1-carboxylate]
IC50 (wild type c-kit): 30.5 nM
efflux ratio at 2 h, 1 µM [1]: 21.5

COC(=O)N1CC(c2cnn(-c3ccc(C)c(NC(=O)c4cnn5ccc(N6CCOCC6)cc45)c3)n2)C1 [Example 80, methyl 3-(2-(4-methyl-3-(5-morpholinopyrazolo[1,5-a]pyridine-3-carboxamido)phenyl)-2H-1,2,3-triazol-4-yl)azetidine-1-carboxylate]
IC50 (wild type c-kit): 9.2 nM
efflux ratio at 2 h, 1 µM [1]: 4

Cc1ccc(-c2nnn(C3CC3)n2)cc1NC(=O)c1cnn2ccc(-c3c(C)nn(CCO)c3C)cc12 [Example 208, N-(5-(2-cyclopropyl-2H-tetrazol-5-yl)-2-methylphenyl)-5-(1-(2-hydroxyethyl)-3,5-dimethyl-1H-pyrazol-4-yl)pyrazolo[1,5-a]pyridine-3-carboxamide]
IC50 (wild type c-kit): 0.4 nM
efflux ratio at 2 h, 1 µM [1]: 4.1

Cc1cnn(-c2ccc(C)c(NC(=O)c3cnn4ccc(-c5cnn(CCO)c5)cc34)c2)n1 [Example 57, 5-(1-(2-hydroxyethyl)-1H-pyrazol-4-yl)-N-(2-methyl-5-(4-methyl-2H-1,2,3-triazol-2-yl)phenyl)pyrazolo[1,5-a]pyridine-3-carboxamide]
IC50 (wild type c-kit): 4 nM
efflux ratio at 2 h, 1 µM [1]: 3.4

COCCCc1ccn2ncc(C(=O)Nc3cc(-c4nnn(C5CN(C(=O)OC)C5)n4)ccc3C)c2c1 [Example 58, methyl 3-(5-(3-(5-(3-methoxypropyl)pyrazolo[1,5-a]pyridine-3-carboxamido)-4-methylphenyl)-2H-tetrazol-2-yl)azetidine-1-carboxylate]
IC50 (wild type c-kit): 126 nM
efflux ratio at 2 h, 1 µM [1]: 4.1

Cc1ccc(-c2nnn(C3CC(F)(F)C3)n2)cc1NC(=O)c1cnn2ccc(N3CCC(C)(O)CC3)cc12 [Example 61, N-(5-(2-(3,3-difluorocyclobutyl)-2H-tetrazol-5-yl)-2-methylphenyl)-5-(4-hydroxy-4-methylpiperidin-1-yl)pyrazolo[1,5-a]pyridine-3-carboxamide]
IC50 (wild type c-kit): 3.2 nM
efflux ratio at 2 h, 1 µM [1]: 16.4

COCCNc1ccn2ncc(C(=O)Nc3cc(-c4nnn([C@H]5C[C@@H](C(F)(F)F)C5)n4)ccc3C)c2c1 [Example 119, 5-((2-methoxyethyl)amino)-N-(2-methyl-5-(2-((1s,3s)-3-(trifluoromethyl)cyclobutyl)-2H-tetrazol-5-yl)phenyl)pyrazolo[1,5-a]pyridine-3-carboxamide or 5-((2-methoxyethyl)amino)-N-(2-methyl-5-(2-((1r,3r)-3-(trifluoromethyl)cyclobutyl)-2H-tetrazol-5-yl)phenyl)pyrazolo[1,5-a]pyridine-3-carboxamide]
IC50 (wild type c-kit): 2.3 nM
efflux ratio at 2 h, 1 µM [1]: 3.9

C[C@](O)(CO)Cn1cc(-c2ccn3ncc(C(=O)Nc4cc(-n5nnc([C@@H]6C[C@H]6F)n5)ccc4Cl)c3c2)cn1 (single isomer, unassigned) [Example 273, N-(2-chloro-5-(5-((1S,2R)-2-fluorocyclopropyl)-2H-tetrazol-2-yl)phenyl)-5-(1-((R)-2,3-dihydroxy-2-methylpropyl)-1H-pyrazol-4-yl)pyrazolo[1,5-a]pyridine-3-carboxamide or N-(2-chloro-5-(5-((1R,2S)-2-fluorocyclopropyl)-2H-tetrazol-2-yl)phenyl)-5-(1-((R)-2,3-dihydroxy-2-methylpropyl)-1H-pyrazol-4-yl)pyrazolo[1,5-a]pyridine-3-carboxamide]
IC50 (wild type c-kit): 0.5 nM
efflux ratio at 2 h, 1 µM [1]: 4.9

COCCNc1ccn2ncc(C(=O)Nc3cc(-c4nnn([C@H]5C[C@@H](C(F)(F)F)C5)n4)c(F)cc3C)c2c1 [Example 108, N-(4-fluoro-2-methyl-5-(2-((1s,3s)-3-(trifluoromethyl)cyclobutyl)-2H-tetrazol-5-yl)phenyl)-5-((2-methoxyethyl)amino)pyrazolo[1,5-a]pyridine-3-carboxamide]
IC50 (wild type c-kit): 11.6 nM
efflux ratio at 2 h, 1 µM [1]: 4

CC(C)(O)Cn1cc(-c2ccn3ncc(C(=O)Nc4cc(-c5nnn(C6CC6)n5)ccc4Cl)c3c2)cn1 [Example 234, N-(2-chloro-5-(2-cyclopropyl-2H-tetrazol-5-yl)phenyl)-5-(1-(2-hydroxy-2-methylpropyl)-1H-pyrazol-4-yl)pyrazolo[1,5-a]pyridine-3-carboxamide]
IC50 (wild type c-kit): 0.5 nM
efflux ratio at 2 h, 0.1 µM ([1]; 0.1 uM concentration of compound (denoted by **), read-out: Pgp Efflux Ratio): 3.8

Cc1ccc(-c2nnn(C3CC(F)(F)C3)n2)cc1NC(=O)c1cnn2ccc(NCCO)cc12 [Example 101, N-(5-(2-(3,3-difluorocyclobutyl)-2H-tetrazol-5-yl)-2-methylphenyl)-5-((2-hydroxyethyl)amino)pyrazolo[1,5-a]pyridine-3-carboxamide]
IC50 (wild type c-kit): 5.2 nM
efflux ratio at 2 h, 1 µM [1]: 16
